# Data as given in patent publication US5662929A, “Therapeutic liposomal formulation” (Universite de Montreal, priority 1994, dated 1997).
# What was measured:
# P. aeruginosa = assay: Bactericidal effect in infected rat lung tissues, second experiment (Table 4); format: in vivo, P. aeruginosa in Sprague-Dawley rats; details: two doses of 240 ug
# From the text: To evaluate the bactericidal efficacy of a liposomal aminoglycoside formulation produced according to the present invention, male, pathogen-free, Sprague-Dawley rats weighing 175 to 225 g (Charles River) were used. Chronic infection in lungs was established by intratracheal administration of 5×10^5 CFU of Pseudomonas aeruginosa PA 508 (mucoid phenotype) prepared in agar beads. It is to be pointed out that this rat model for chronic pulmonary infection is widely recognized as the most appropriate animal model for chronic pulmonary infections in human CF patients. […] The lipid mixture were DPPC:DMPG at a molar ratio of 10:1 (formula no 1) and DPPC:DMPC at a molar ratio of 15:1 (formula no 2). Sixteen hours after the last treatment, the animals were sacrificed and the entire lungs were removed aseptically, weighed and homogenized as described previously for mice. Serial 10-fold dilutions of the homogenates in cold PBS were made and spread in triplicate on proteose peptone agar plates. Identification of P. aeruginosa was confirmed by specific cultures. CFU were counted after 24-h incubations at 37° C. under 5% CO^2. Counts were expressed in log CFU per pair of lungs. PBS and PBS-liposomes were used as controls. […]
# [1] = test system: Pseudomonas aeruginosa PA 508 (mucoid phenotype); assay: Bactericidal effect in chronic pulmonary infection, rat (Table 3 experiment); format: in vivo, P. aeruginosa in Sprague-Dawley rats
# Description: Different liposomal formulations were prepared according to Example 1 and analyzed by differential scan colorimetry. Using differential scan calorimetry, the temperatures of phase transition (Tc) were calculated for the tobramycin-liposomal formulations listed in Table 1. All these formulations were then tested in vitro to assess the antibiotic kinetics of liberation from the liposomes. In addition, these formulations were tested in a non-infected mouse model as previously described (Omri et al. 1994, Antimicrob. Agents Chemother. 38:1090-1095) to assess the persistence of the liposomes in the lung. Only the DPPC/DMPG 10:1, 15:1 and DSPC. […] These liposomal formulations were further tested in animal model of chronic pulmonary infection to examine their antibacterial efficacy. […] Of note, the addition of cholesterol to the formulation described in Table 1 brought the Tc to a minimum value of 60° C. Such formulations were incompatible with modulation of gradual antibiotic liberation and suitable interactions with bacteria. Thus, in order to maintain the desired characteristic of the liposome formulation, a low rigidity of the liposomes seems required. This low rigidity can be achieved by maintaining a low temperature of phase transition (below the body temperature of the animal to which the formulation is to be administered) and avoiding the use of cholesterol in the formulation.
# To evaluate the bactericidal efficacy of a liposomal aminoglycoside formulation produced according to the present invention, male, pathogen-free, Sprague-Dawley rats weighing 175 to 225 g (Charles River) were used. Chronic infection in lungs was established by intratracheal administration of 5×10^5 CFU of Pseudomonas aeruginosa PA 508 (mucoid phenotype) prepared in agar beads. It is to be pointed out that this rat model for chronic pulmonary infection is widely recognized as the most appropriate animal model for chronic pulmonary infections in human CF patients. After 3 days, three doses (600 ug) of free or liposome-encapsulated tobramycin were given intratracheally at intervals of 16 h. The lipid mixture were DPPC:DMPG at a molar ratio of 10:1 (formula no 1) and DPPC:DMPC at a molar ratio of 15:1 (formula no 2). Sixteen hours after the last treatment, the animals were sacrificed and the entire lungs were removed aseptically, weighed and homogenized as described previously for mice. Serial 10-fold dilutions of the homogenates in cold PBS were made and spread in triplicate on proteose peptone agar plates. Identification of P. aeruginosa was confirmed by specific cultures. CFU were counted after 24-h incubations at 37° C. under 5% CO^2. Counts were expressed in log CFU per pair of lungs. PBS and PBS-liposomes were used as controls.
# [2] = Pulmonary retention / tobramycin levels after intratracheal administration in non-infected mice; format: in vivo, BALB/c mice; details: 200 ug intratracheal, HPLC
# Description: Using differential scan calorimetry, the temperatures of phase transition (Tc) were calculated for the tobramycin-liposomal formulations listed in Table 1. All these formulations were then tested in vitro to assess the antibiotic kinetics of liberation from the liposomes. […] These liposomal formulations were further tested in animal model of chronic pulmonary infection to examine their antibacterial efficacy.
# Lungs and kidneys were removed aseptically, weighed, and then homogenized in cold sterile PBS (40% [wt/vol]) for 30 s with a Polytron homogenizer. Tobramycin levels in both homogenized tissues and sera were measured by HPLC. Groups of three mice were used for each time value.
compound,measurement,setting,value
"NC[C@H]1O[C@H](O[C@H]2[C@H](O)[C@@H](O[C@H]3O[C@H](CO)[C@@H](O)[C@H](N)[C@H]3O)[C@H](N)C[C@@H]2N)[C@H](N)C[C@@H]1O [free tobramycin, tobramycin]",cfu/pair of lungs,P. aeruginosa,1.07 × 10^6 cfu/pair of lungs
same,log cfu/pair of lungs,P. aeruginosa,6.03 log cfu/pair of lungs
same,bacteria enumerated,"[1]; free antibiotic, see below",10^7 c.f.u.
same,antibacterial efficacy in chronic pulmonary infection model (in words),"[1]; rat, compared with free antibiotic",no or little bactericidal activity
same,log cfu/pair of lungs,"[1]; three doses (600 ug) intratracheally at 16 h intervals, 16 h after last treatment",7.10 log cfu/pair of lungs
same,cfu/pair of lungs,"[1]; three doses (600 ug) intratracheally at 16 h intervals, 16 h after last treatment, cfu counts < 30 not statistically significant",1.25 × 10^7 cfu/pair of lungs
same,Conc in lungs,[2]; 0.25 h,43 ug/pair of lungs
same,Conc in kidneys,[2]; 1 h,25 ug/pair of kidneys
same,Conc in lungs,[2]; 1 h,11 ug/pair of lungs
